Our source for the IC50 values is patent US8309721B2, “HSP90 inhibitory carbazole derivatives, compositions containing same and use thereof” (Sanofi, priority 2008, dated 2012).

Each structure is given as a SMILES string. Where only a bound is given, the exact number is not on record here.

One assay deals with Her2 receptor expression at the surface of SKBr3 cells. The assay can be described thus: phenotypic SKBr3/HER2 cell test (Her2 surface expression by flow cytometry). The format is cell-based. The settings on record: 24 h incubation, inhibition of Her2 expression. How it is done: The cellular activity of the compounds can in particular be evaluated by means of the phenotypic “SKBr3/HER2” cell test described below:
The SKBr3 […] adenocarcinoma cells, overexpressing the Her2 tyrosine kinase receptor, originate from the ATCC (HTB-30) and are cultured in McCoy's 5A medium supplemented with 10% FBS and 1% L-glutamine.
The cells are seeded in 12-well plates at a proportion of 125 000 cells per well in 1 ml of complete medium. The following day, the products are added at varying concentrations. After incubation for 24 h, the cells are trypsinized, washed with PBS and incubated with 100 ng of anti-Her2 antibody coupled to PE (Phycoerythrin) (BD 340552) for 30 minutes at 4° C. in the dark. The fluorescence due to the expression of the Her2 receptor at the surface of the cells is then read using a FACS Calibur flow cytometer (Becton-Dickinson). The percentage inhibition of Her2 expression as a function of the concentrations of product tested is fitted by the nonlinear regression technique (XLfit, equation 205) in order to measure an IC50 for each product.
Background: Flow cytometry measures light scatter and fluorescence of single cells or particles in a stream.
As to `NC(=O)c1ccc(-n2c3ccccc3c3c(-c4nc5cc(F)ccc5[nH]4)cccc32)cc1N[C@H]1CCCC[C@@H]1CO` (single isomer, unassigned) [Example 131], the IC50 (usually the midpoint of a concentration-inhibition curve) is below 1 µM.

The assay is the same for the next values; noted with them: Homo sapiens, SK-BR-3, 24 h incubation, inhibition of Her2 expression.
`NC(=O)c1ccc(-n2c3ccccc3c3c(-c4nc5ccc(F)cc5[nH]4)cccc32)cc1NC[C@@H]1CCCC[C@@H]1O` (racemic) [Example 93] had an IC50 below 1 µM. On the same count and under the same terms, next, `NC(=O)c1ccc(-n2c3ccccc3c3c(-c4cnc5ccccc5c4)cccc32)cc1NC[C@@H]1CCCC[C@@H]1O` (racemic) [Example 95]: below 1 µM; `NC(=O)c1ccc(-n2c3ccccc3c3c(-c4nc5ccc(F)cc5[nH]4)cccc32)cc1N[C@H]1CCCC[C@H]1CO` (racemic) [Example 96]: below 1 µM; `NC(=O)c1ccc(-n2c3ccccc3c3c(-c4nc5ccc(F)cc5[nH]4)cccc32)cc1N[C@H]1CCCC[C@@H]1CO` (racemic) [Example 97]: below 1 µM. Still for that read-out and setting: with `NC(=O)c1ccc(-n2c3ccccc3c3c(-c4cnc5ccccc5c4)cccc32)cc1N[C@H]1CCCC[C@@H]1CO` (racemic) [Example 100, 2-[1(R,S),2(R,S)-2-hydroxymethyl-cyclohexyl-1-amino]-4-[4-(quinolin-3-2-yl)-9H-carbazol-9-yl]benzamide] the figure was below 1 µM; with `NC(=O)c1ccc(-n2c3ccccc3c3c(-c4cnc5ccccc5c4)cccc32)cc1N[C@H]1CCCC[C@H]1CO` (racemic) [Example 101, 2-[1(S,R),2(R,S)-2-hydroxymethylcyclohexyl-1-amino]-4-[4-(quinolin-3-2-yl)-9H-carbazol-9-yl]benzamide], below 1 µM. Still for that read-out and setting: next, `NC(=O)c1ccc(-n2c3ccccc3c3c(-c4nc5ccc(F)cc5[nH]4)cccc32)cc1N[C@H]1CCC[C@H]1CO` (racemic) [Example 118, 4-[4-(6-fluoro-1H-benzimidazol-2-yl)-9H-carbazol-9-yl]-2-[2(R,S)-hydroxymethylcyclopentan-1(S,R)-amino]benzamide]: below 1 µM; `NC(=O)c1ccc(-n2c3ccccc3c3c(-c4nc5cc(F)ccc5[nH]4)cccc32)cc1N[C@H]1CCCC[C@@H]1CO` (single isomer, unassigned) [Example 130]: below 1 µM. `COCCCOc1cc(-n2c3ccccc3c3c(-c4nc5ccc(F)cc5[nH]4)cccc32)ccc1C(N)=O` [Example 60, 4-[4-(6-fluoro-1H-benzimidazol-2-yl)-9H-carbazol-9-yl]-2-(3-methoxypropoxy)benzamide] came in with a half-inhibitory concentration (IC50) of 1 to 10 µM. The same measure, in the same setting: next, `CN1CCC(O)(CCNc2cc(-n3c4ccccc4c4c(-c5nc6ccc(F)cc6[nH]5)cccc43)ccc2C(N)=O)CC1` [Example 70, 4-[4-(6-fluoro-1H-benzimidazol-2-yl)-9H-carbazol-9-yl]-2-[2-(4-hydroxy-1-methylpiperidin-4-yl)ethylamino]benzamide]: below 1 µM; `NC(=O)c1ccc(-n2c3ccccc3c3c(-c4nc5ccc(F)cc5[nH]4)cccc32)cc1NCCC1(O)CCCC1` [Example 71, 4-[4-(6-fluoro-1H-benzimidazol-2-yl)-9H-carbazol-9-yl]-2-[2-(1-hydroxycyclopentyl)ethylamino]benzamide]: below 1 µM; `CC(C)(O)CCNc1cc(-n2c3ccccc3c3c(-c4cnc5ccccc5c4)cccc32)ccc1C(N)=O` [Example 72, 2-(3-hydroxy-3-methylbutylamino)-4-[4-(quinolin-3-yl)-9H-carbazol-9-yl]benzamide]: below 1 µM.

Turning to `NC(=O)c1ccc(-n2c3ccccc3c3c(-c4cncc(O)c4)cccc32)cc1N[C@H]1CC[C@H](O)CC1` [Example 73, 2-[(4-trans-hydroxycyclohexyl)amino]-4-[4-(5-hydroxypyridin-3-yl)-9H-carbazol-9-yl]benzamide], the IC50 was below 1 µM. `NC(=O)c1ccc(-n2c3ccccc3c3c(-c4ccc(C(F)(F)F)nc4)cccc32)cc1N[C@H]1CC[C@H](O)CC1` [Example 74, 2-[(4-trans-hydroxycyclohexyl)amino]-4-{4-[6-(trifluoromethyl)pyridin-3-yl]-9H-carbazol-9-yl}benzamide]: the IC50 was in the range of 1 to 10 µM. In turn, `NC(=O)c1ccc(-n2c3ccccc3c3c(-c4nc5ccc(F)cc5[nH]4)cccc32)cc1NCCCF` [Example 75, 4-[4-(6-fluoro-1H-benzimidazol-2-yl)-9H-carbazol-9-yl]-2-(3-fluoropropylamino)benzamide] yielded an IC50 below 1 µM.

`NC(=O)c1ccc(-n2c3ccccc3c3c(-c4cnc5ccccc5c4)cccc32)cc1NCCCF` [Example 76, 2-(3-fluoropropylamino)-4-[4-(quinolin-3-yl)-9H-carbazol-9-yl]benzamide] returned an IC50 below 1 µM. On the same count and under the same terms, with `NC(=O)c1ccc(-n2c3ccccc3c3c(-c4cnc5ccccc5c4)cccc32)cc1NCCF` [Example 77, 2-(2-fluoroethylamino)-4-[4-(quinolin-3-yl)-9H-carbazol-9-yl]benzamide] the figure was below 1 µM; with `NC(=O)c1ccc(-n2c3ccccc3c3c(-c4cnc5ccccc5c4)cccc32)cn1` [Example 78, 5-[4-(quinolin-3-yl)-9H-carbazol-9-yl]pyridin-2-amide], 1 to 10 µM.

Regarding `NC(=O)c1ccc(-n2c3ccccc3c3c(-c4nc5ccc(F)cc5[nH]4)cccc32)cc1NCCc1ccccn1` [Example 79, 4-[4-(6-fluoro-1H-benzimidazol-2-yl)-9H-carbazol-9-yl]-2-[2-(pyridin-2-yl)ethylamino]benzamide], the IC50 was below 1 µM. On to `NC(=O)c1ccc(-n2c3ccccc3c3c(-c4cnc5ccccc5c4)cccc32)cc1NCCc1ccccn1` [Example 80, 4-[4-(quinolin-3-yl)-9H-carbazol-9-yl]-2-[2-(pyridin-2-yl)ethylamino]benzamide], for which the IC50 was below 1 µM. The compound `NC(=O)c1ccc(-n2c3ccccc3c3c(-c4nc5ccc(F)cc5[nH]4)cccc32)cc1NCc1ccccn1` [Example 81, 4-[4-(6-fluoro-1H-benzimidazol-2-yl)-9H-carbazol-9-yl]-2-[(pyridin-2-ylmethyl)amino]benzamide] came in with an IC50 below 1 µM.

As for `NC(=O)c1ccc(-n2c3ccccc3c3c(-c4nc5ccc(F)cc5[nH]4)cccc32)cc1NCCn1ccnc1` [Example 82, 4-[4-(6-fluoro-1H-benzimidazol-2-yl)-9H-carbazol-9-yl]-2-[2-(1H-imidazol-1-yl]ethylamino]benzamide], the IC50 was below 1 µM. Take `CC1(C)CC(Nc2cc(-n3c4ccccc4c4c(-c5nc6ccc(F)cc6[nH]5)cccc43)ccc2C(N)=O)CC(C)(C)N1` [Example 83]: the IC50 was below 1 µM. Still for that read-out and setting: next, `CC1(C)CC(Nc2cc(-n3c4ccccc4c4c(-c5cnc6ccccc6c5)cccc43)ccc2C(N)=O)CC(C)(C)N1` [Example 84, 4-[4-(quinolin-3-yl)-9H-carbazol-9-yl]-2-(2,2,6,6-tetramethyl-1H-piperidin-4-ylamino]benzamide]: below 1 µM; `CN1C(C)(C)CC(Nc2cc(-n3c4ccccc4c4c(-c5nc6ccc(F)cc6[nH]5)cccc43)ccc2C(N)=O)CC1(C)C` [Example 85, 4-[4-(6-fluoro-1H-benzimidazol-2-yl)-9H-carbazol-9-yl]-2-(1,2,2,6,6-pentamethyl-1H-piperidin-4-ylamino]benzamide]: below 1 µM; `NC(=O)c1ccc(-n2c3ccccc3c3c(-c4cnc5ccccc5c4)cccc32)cc1NCc1ccccn1` [Example 86, 2-[(pyridin-2-ylmethyl)amino]-4-[4-(quinolin-3-yl)-9H-carbazol-9-yl]benzamide]: below 1 µM.

`NC(=O)c1ccc(-n2c3ccccc3c3c(-c4cnc5ccccc5c4)cccc32)cc1NCCn1ccnc1` [Example 87, 2-[2-(1H-imidazol-1-yl)ethylamino]-4-[4-(quinolin-3-yl)-9H-carbazol-9-yl]benzamide] returned a concentration for half-maximal inhibition (IC50) below 1 µM. Compound `CN1C(C)(C)CC(Nc2cc(-n3c4ccccc4c4c(-c5cnc6ccccc6c5)cccc43)ccc2C(N)=O)CC1(C)C` [Example 88, (1,2,2,6,6-pentamethyl-1H-piperidin-4-ylamino]-4-[4-(quinolin-3-yl)-9H-carbazol-9-yl]-2-benzamide] displayed an IC50 below 1 µM. For the compound `NC(=O)c1ccc(-n2c3ccccc3c3c(-c4nc5ccc(F)cc5[nH]4)cccc32)cc1NC1CCCC(O)C1` [Example 89, 4-[4-(6-fluoro-1H-benzimidazol-2-yl)-9H-carbazol-9-yl]-2-(3(R,S)-hydroxycyclohexyl-1(R,S)-amino)benzamide], the IC50 was below 1 µM. Same read-out and setting: next, `CC(C)(O)CNc1cc(-n2c3ccccc3c3c(-c4nc5ccc(F)cc5[nH]4)cccc32)ccc1C(N)=O` [Example 90, 4-[4-(6-fluoro-1H-benzimidazol-2-yl)-9H-carbazol-9-yl]-2-(2-hydroxy-2-methylpropylamino)benzamide]: below 1 µM; `CC(C)(O)CNc1cc(-n2c3ccccc3c3c(-c4cnc5ccccc5c4)cccc32)ccc1C(N)=O` [Example 91, (2-hydroxy-2-methylpropylamino)-4-[4-(quinolin-3-yl)-9H-carbazol-9-yl]-2-benzamide]: below 1 µM. Still for that read-out and setting: with `NC(=O)c1ccc(-n2c3ccccc3c3c(-c4nc5ccc(F)cc5[nH]4)cccc32)cc1NCc1cocn1` [Example 92, 4-[4-(6-fluoro-1H-benzimidazol-2-yl)-9H-carbazol-9-yl]-2-[(oxazol-4-ylmethyl)amino]benzamide] the figure was below 1 µM; with `NC(=O)c1ccc(-n2c3ccccc3c3c(-c4cnc5ccccc5c4)cccc32)cc1NCc1cocn1` [Example 94, 2-[(oxazol-4-ylmethyl)amino]-4-[4-(quinolin-3-yl)-9H-carbazol-9-yl]benzamide], below 1 µM.
